Columns and labels:
Herpes Simplex virus = assay: Photodynamic virus inactivation, plaque assay of virus infectivity; assay type: cell-based; conditions: AHF products; chlorpromazine 1 X 10^-4M; light for less than ten minutes; read-out: logs of marker virus inactivated
[1] = system: LAV reverse transcriptase; assay: Photodynamic inactivation of LAV seeded into AHF, reverse transcriptase assay; assay type: biochemical; conditions: AHF seeded with LAV, Chlorpromazine 1 X 10^-4M, unfiltered Mercury Arc Lamp
Description: The following data supports photodynamic inactivation of LAV using indirect methods. AHF was seeded with LAV virus. In the first set of data, Protoporphyrin was added at a concentration of 5 X 10^-6M. The mixture was exposed to light ffrom a 65 watt Super Diazo Blue lamp at a distance of 10 cm. Albumin was added to the samples after inactivation to inhibit any inactivation from extraneous light. The product was lyophilized and subjected to a reverse transcriptase assay.
In the second set of data, LAV was seeded into an AHF composition. Chlorpromazine (1 X 10^-4M) was added as a photosensitize and the mixture was exposed to unfiltered light from an 85 watt high pressure mercury arc lamp at a distance of 10 cm. The product was lyophilized and analyzed for reverse transcriptase activity. Results are reported in counts per minute.

Sindbis = assay: microbe, parasite or virus in culture; assay type: cell-based; conditions: read-out: logs of marker virus inactivated
[2] = system: Vesicular stomatitis virus; assay: microbe, parasite or virus in culture; assay type: cell-based; conditions: read-out: logs of marker virus inactivated
Factor VIII = target: T1, Factor VIII (Homo sapiens, UniProt P00451); assay: Factor VIII C activity, one-stage activated partial thromboplastin time assay (AHF product after photosensitizer and light)
T1 sequence (P00451 20-1332 limits assumed): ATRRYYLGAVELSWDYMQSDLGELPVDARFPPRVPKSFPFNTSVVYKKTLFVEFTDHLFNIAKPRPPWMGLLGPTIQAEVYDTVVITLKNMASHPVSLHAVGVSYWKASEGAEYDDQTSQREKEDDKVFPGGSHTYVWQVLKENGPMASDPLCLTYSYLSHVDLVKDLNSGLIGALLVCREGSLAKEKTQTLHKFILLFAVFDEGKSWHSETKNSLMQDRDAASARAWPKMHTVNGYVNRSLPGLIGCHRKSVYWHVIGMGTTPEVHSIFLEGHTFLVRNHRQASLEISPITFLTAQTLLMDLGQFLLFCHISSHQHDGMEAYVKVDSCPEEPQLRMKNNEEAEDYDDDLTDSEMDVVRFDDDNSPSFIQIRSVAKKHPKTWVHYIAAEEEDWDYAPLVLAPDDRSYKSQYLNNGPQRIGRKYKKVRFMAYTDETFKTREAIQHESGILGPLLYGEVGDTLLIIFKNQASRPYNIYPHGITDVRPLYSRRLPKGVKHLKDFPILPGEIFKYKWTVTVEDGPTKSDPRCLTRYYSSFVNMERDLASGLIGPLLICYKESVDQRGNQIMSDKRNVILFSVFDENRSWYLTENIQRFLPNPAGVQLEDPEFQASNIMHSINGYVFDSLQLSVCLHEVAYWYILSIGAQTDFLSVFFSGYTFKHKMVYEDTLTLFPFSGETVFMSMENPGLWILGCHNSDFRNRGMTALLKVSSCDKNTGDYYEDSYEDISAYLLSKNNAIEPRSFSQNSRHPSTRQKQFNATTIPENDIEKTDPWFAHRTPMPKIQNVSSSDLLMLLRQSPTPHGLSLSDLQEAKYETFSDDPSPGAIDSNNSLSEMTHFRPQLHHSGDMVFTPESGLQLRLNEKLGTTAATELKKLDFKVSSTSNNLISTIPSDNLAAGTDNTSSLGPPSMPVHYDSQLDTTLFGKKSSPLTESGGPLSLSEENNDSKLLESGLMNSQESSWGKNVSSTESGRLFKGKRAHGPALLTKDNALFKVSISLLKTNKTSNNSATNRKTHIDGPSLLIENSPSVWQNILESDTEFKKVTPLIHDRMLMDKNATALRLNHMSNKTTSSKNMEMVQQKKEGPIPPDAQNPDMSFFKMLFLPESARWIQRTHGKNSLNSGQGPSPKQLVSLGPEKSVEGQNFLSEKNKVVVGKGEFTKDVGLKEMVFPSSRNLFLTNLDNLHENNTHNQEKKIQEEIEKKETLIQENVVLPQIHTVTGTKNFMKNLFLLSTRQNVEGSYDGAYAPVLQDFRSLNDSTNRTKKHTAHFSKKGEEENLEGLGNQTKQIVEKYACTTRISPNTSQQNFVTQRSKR
T1 sequence (P00451 1668-2351 limits assumed): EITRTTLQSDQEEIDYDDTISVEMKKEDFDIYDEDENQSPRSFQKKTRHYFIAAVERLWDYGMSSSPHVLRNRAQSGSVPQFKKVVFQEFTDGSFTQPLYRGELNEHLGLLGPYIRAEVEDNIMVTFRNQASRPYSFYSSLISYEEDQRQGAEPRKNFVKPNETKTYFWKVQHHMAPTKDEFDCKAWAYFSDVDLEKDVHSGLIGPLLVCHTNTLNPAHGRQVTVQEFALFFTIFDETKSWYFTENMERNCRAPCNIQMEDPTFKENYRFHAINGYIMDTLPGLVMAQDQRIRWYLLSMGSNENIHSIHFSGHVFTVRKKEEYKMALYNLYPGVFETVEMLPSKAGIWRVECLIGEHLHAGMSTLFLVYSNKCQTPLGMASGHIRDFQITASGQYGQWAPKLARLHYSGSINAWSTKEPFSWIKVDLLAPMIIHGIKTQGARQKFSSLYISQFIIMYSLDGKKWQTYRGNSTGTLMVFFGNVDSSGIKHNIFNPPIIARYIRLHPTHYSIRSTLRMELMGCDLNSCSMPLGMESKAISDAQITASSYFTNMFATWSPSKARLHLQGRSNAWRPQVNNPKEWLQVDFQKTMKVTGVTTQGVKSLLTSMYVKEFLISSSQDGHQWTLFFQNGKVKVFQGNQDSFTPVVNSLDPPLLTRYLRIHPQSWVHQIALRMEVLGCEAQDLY
Description: The mixture was then exposed to light of a defined wavelength for a specified period of time.
Several light sources were used. A U.V. light source derived from a high pressure mercury vapor quartz lamp (85 watts) was employed. This source provided a wide band of light in the 390 to 410 nm range. A filter was used to remove the radiation below 350 nm in wave length. Alternatively a super diazo blue fluorescent lamp was used which has a peak emission near the absorption peak of the porphyrins employed.
Factor VIII C and Factor IX activity was determined by the one-stage activated partial thromboplastin time assay using Kaolin as an activator and human Factor VIII or Factor IX deficient plasma as a substrate. […] It involves the addition of the test sample to Factor VIII or Factor IX deficient plasma and measuring the degree of correction of the clotting time. This is then compared to a curve constructed using various dilutions of a lyophilized concentrate (reference) of known potency. […] Both sample and refernce are prediluted in Factor VIII deficient substrate plasma to an approximate activity of 1 U/mL. From the percentage of the reference, the potency can be estimated.

[3] = Chlorpromazine 1x10^-4M, Mercury Arc Lamp, Sensitizer added-10 min light
[4] = Chlorpromazine 1x10^-5M, Mercury Arc Lamp, Sensitizer added-10 min light
[5] = Chlorpromazine 1x10^-5M, Mercury Arc Lamp, Sensitizer added-20 min light

Q: What does the source list for CN(C)CCCN1c2ccccc2Sc2ccc(Cl)cc21 [Chlorpromazine, 10-(3-dimethyl-aminopropyl)-2-chlorphenothiazine]?
A: log reduction at 100 µM (Herpes Simplex virus): > 5; C.P.M. (reverse transcriptase activity) ([1]; exposure 0 minutes): 36,192 C.P.M.; C.P.M. (reverse transcriptase activity) ([1]; exposure 5 minutes): 27,100 C.P.M.; C.P.M. (reverse transcriptase activity) ([1]; exposure 10 minutes): 6,814 C.P.M.; C.P.M. (reverse transcriptase activity) ([1]; exposure 20 minutes): 4,742 C.P.M.; log reduction at 100 µM (Sindbis): > 5; log reduction at 100 µM [2]: > 5; % Change (Ref: Bulk), Percent change in Factor VIII coagulant activity (Factor VIII; [3]): -29%; Units/ml (Factor VIII; [3]): 20.0 Units/ml; Units/ml (Factor VIII; Chlorpromazine 1x10^-4M, Sensitizer added-no light): 27.3 Units/ml; % Change (Ref: Bulk), Percent change in Factor VIII coagulant activity (Factor VIII; [4]): -23%; Units/ml (Factor VIII; [4]): 24.8 Units/ml; % Change (Ref: Bulk), Percent change in Factor VIII coagulant activity (Factor VIII; [5]): -43%; Units/ml (Factor VIII; [5]): 18.2 Units/ml; Units/ml (Factor VIII; Chlorpromazine 1x10^-5M, Sensitizer added-no light): 30.1 Units/ml
